Here are results for 3 compounds from US4847273A, “Dihydropyridine derivatives” (Hoffmann-La Roche Inc., priority 1985, dated 1989).

For experiment [1], the system named is ^3 H-nifedipine (or ^3 H-nitrendipine) binding, rabbit or guinea pig heart membranes. Description: 3H-Nifedipine binding determination on homogenates or partially-cleaned membranes of rabbit or guinea pig heart (test A). To be noted: maximum inhibition of specific binding; nifedipine established as 100%. How it is done: A. ^3 H-Nifedipine binding determination:
The determination is carried out on homogenates or on partially-cleaned membranes of rabbit or guinea pig heart. The reaction mixture (0.3 ml) consists of 0.2-0.8 mg of membrane protein, 1 nM of ^3 H-nifedipine (or 0.25 nM of ^3 H-nitrendipine) and various concentrations of the test substance. The incubation lasts 30 minutes at 25° C. or 37° C. and is stopped by dilution with the incubation buffer; a filtration is subsequently carried out. The filter-bound radioactivity is measured with a scintillation counter. Specific binding, that is, receptor-bound, is defined as the difference between total and unspecific-bound radioactivity. The unspecific binding is determined in the presence of an excess of non-radioactive nifedipine (1 μM).
The activity (potency) of a compound in this test is defined by the IC50 and %maximum inhibition values (%max. inhibition). The IC50 is the substance concentration (in mol/l) which produces a half-maximum inhibition of the specific ^3 H-nifedipine (or ^3 H-nitrendipine) binding. The maximum inhibition of the specific binding is given by the %maximum inhibition value; this value is established as 100% for the reference compound nifedipine. Both parameters are extrapolated from a concentration-binding curve.

Experiment [2] can be described thus: Haemodynamic parameters in the narcotized dog (test B). It counts as in vivo. To be noted: 0.03 mg/kg p.o. The text has this:
B. Haemodynamic parameters in the narcotized dog:
The 4 most important measurement parameters (with respective measurement units) of the haemodynamic experiment are: (1) CBF: Coronary Blood Flow (in ml/min)--the velocity of blood flow through the coronary arteries; (2) HR: heart rate (in beats/min)--the heart frequency; (3) BP: blood pressure (in mm Hg)--the blood pressure; and (4) dp/dt: rate of increase in left ventricular pressure (in mm Hg/sec)--the rate of increase of the left ventricular pressure, as a measurement of the contractility force of the heart. The values are given as the %maximum variation from the initial value (Δ%) and the duration of this variation (t) per dosage administered.
There is thus obtained not only an overall picture of the activity of the substance, but also an estimation as to the potential selectivity for a specific part of the circulatory system in the entire organism. After the administration of an anaesthetic, the dog is intubated and respired artificially. Blood pH, pCO2, pO2 and haemoglobin are measured hourly with a blood-gas analyzer. The blood pressure (systolic and diastolic) is measured with a probe in the aorta abdominalis. The heart frequency is recorded by means of a tachometer, which is disengaged from the pressure pulse. For the other measurements the heart must firstly be opened in order that a probe can be inserted in the left ventricle (heart chamber) for the pressure measurements (dp/dt). The coronary blood flow is measured with a flowing probe in the left coronary artery (descendens).

For the compound `CCCOCCOC(=O)C1=C(C)NC(C)=C(S(=O)(=O)N(C)C)C1c1cccc([N+](=O)[O-])c1` (stereo not drawn) [A, 5-(dimethylsulfamoyl)-1,4-dihydro-2,6-dimethyl-4-(3-nitrophenyl)nicotinic acid 2-propoxyethyl ester], in experiment [1], the “% max. inhib.” value is reported as 100%. In addition, in experiment [2], the “Bp (blood pressure), % maximum variation from the initial value (Δ%)” value (“Bp (blood pressure), % maximum variation … (Δ%)” for short) is reported as -55%; the “Bp, duration of variation (t)” value is given as 60 '; the “CBF (Coronary Blood Flow), % maximum variation from the initial value (Δ%)” value (from here on “CBF (Coronary Blood Flow) … (Δ%)”) was 50%; the “CBF, duration of variation (t)” value is recorded as 60 '. Moreover, in experiment [2], the “HR (heart rate), % maximum variation from the initial value (Δ%)” value (“HR (heart rate), % maximum variation … (Δ%)” for short) was -19%; the “HR, duration of variation (t)” value was 40 '; the “dp/dt (rate of increase in left ventricular pressure), % maximum variation from the initial value (Δ%)” value is given as -42%; the “dp/dt, duration of variation (t)” value is listed as 60 '.

Turning to `CCCCN(C)S(=O)(=O)C1=C(C)NC(C)=C(C(=O)OC(C)C)C1c1cccc([N+](=O)[O-])c1` (stereo not drawn) [B, 5-(butylmethylsulfamoyl)-1,4-dihydro-2,6-dimethyl-4-(3-nitrophenyl)nicotinic acid isopropyl ester], the “% max. inhib.” value in experiment [1] stood at 100%. For the same compound, in experiment [2], the “Bp (blood pressure), % maximum variation … (Δ%)” value is -30%; the “Bp, duration of variation (t)” value is 24 '; the “CBF (Coronary Blood Flow) … (Δ%)” value stood at 78%; the “CBF, duration of variation (t)” value was 40 '. In addition, in experiment [2], the “HR (heart rate), % maximum variation … (Δ%)” value is reported as -11%; the “HR, duration of variation (t)” value is > 30 '; the “dp/dt (rate of increase in left ventricular pressure), % maximum variation from the initial value (Δ%)” value is listed as -2%; the “dp/dt, duration of variation (t)” value is 20 '.

`COCCN(C)S(=O)(=O)C1=C(C)NC(C)=C(C(=O)OC(C)C)C1c1cccc([N+](=O)[O-])c1` (stereo not drawn) [C, 1,4-dihydro-2,6-dimethyl-5-[(2-methoxyethyl)methylsulfamoyl]-4-(3-nitrophenyl)nicotinic acid isopropyl ester]: in experiment [1], the “% max. inhib.” value came to 100%. Moreover, in experiment [2], the “Bp (blood pressure), % maximum variation … (Δ%)” value is -32%; the “Bp, duration of variation (t)” value is on record as > 60 '; the “CBF (Coronary Blood Flow) … (Δ%)” value is 108%; the “CBF, duration of variation (t)” value was 20 '. For the same compound, in experiment [2], the “HR (heart rate), % maximum variation … (Δ%)” value is -11%; the “HR, duration of variation (t)” value is > 60 '; the “dp/dt (rate of increase in left ventricular pressure), % maximum variation from the initial value (Δ%)” value was -16%; the “dp/dt, duration of variation (t)” value is listed as > 60 '.
